The record followed here is PubChem BioAssay (NCI).

Assay in all cases: inhibition of tumour cell growth, NCI panel, 48 h
Assay [1] deals with OVCAR-5 ovarian.
Assay [2] has as its system ACHN renal.
In assay [3] the test system is NCI-H23 lung.
For assay [4], the system named is HCT-116 colon.
The subject of assay [5] is KM12 colon.
In assay [6] the test system is EKVX NSCLC.
Assay [7] concerns BT-549 breast.
The subject of assay [8] is MDA-N.
The subject of assay [9] is SF-295 CNS.
Assay [10] concerns 786-0 renal.
Assay [11] relates to U251 CNS.
Assay [12] relates to HCT-15 colon.
Assay [13] has as its system A549 NSCLC.
Assay [14] deals with SNB-19 CNS.
In assay [15] the test system is SN12C renal.
Assay [16] has as its system HCC-2998 colon.
Assay [17] deals with OVCAR-4 ovarian.

SMILES strings stand for the structures.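 Where inhibition never reached the appropriate level, the endpoint shown equals the highest concentration tested. Otherwise, values were interpolated linearly from a five-concentration, 48-hour dose response in 96-well plates. TGI denotes the concentration required for complete inhibition of growth.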 Where only a bound is given, the exact number is not on record here.

In the case of `Cc1ccc(S(=O)(=O)N(CCN)c2cc3c4c(c2)Oc2cccc5c2C4c2c(cccc2O3)O5)cc1`, the TGI is 62.1 µM in assay [1]; above 100 µM in assay [2]; above 100 µM in [3]; 30.5 µM in [4]; above 100 µM in assay [5]; 29 µM in assay [6]. Besides, the TGI in [7] was above 100 µM; in assay [8] it was 67.6 µM; in assay [9], 54.5 µM; in [10], 30.2 µM; in assay [11], above 100 µM; in assay [12], above 100 µM. Moreover, the TGI in assay [13], in assay [14], in assay [15] and in [16] was above 100 µM in each case.
With `Fc1cc2nc3n(c2cc1F)C(c1c(F)cccc1F)SC3` (stereo unspecified), the TGI is above 100 µM in assay [1]; above 100 µM in [17]; above 100 µM in assay [2]; above 100 µM in [3]; 54.1 µM in assay [4]; above 100 µM in assay [5]. For the same compound, the TGI in assay [7] is above 100 µM; in assay [8], above 100 µM; in [9], above 100 µM; in assay [10] it was 80.6 µM; in assay [11], above 100 µM; in assay [12] it was above 100 µM. In addition, the TGI in assay [13], in [14], in assay [15] and in assay [16] was above 100 µM in each case.
Take `Nc1ccc(Oc2ccc(C34CC5CC(C3)CC(c3ccc(Oc6ccc(N)cc6C(F)(F)F)cc3)(C5)C4)cc2)c(C(F)(F)F)c1`: the TGI in [1] was 70.3 µM; in assay [17], above 100 µM; in [2], above 100 µM; in assay [3] it was 45.6 µM; in assay [4], above 100 µM; in assay [5] it was 67.6 µM. Also, the TGI in assay [6] was 30.9 µM; in assay [7], 52.1 µM; in assay [8], above 100 µM; in assay [9], 79.9 µM; in assay [10] it was above 100 µM; in assay [11], 27.6 µM. In addition, the TGI was above 100 µM in [12], 49 µM in [13], 48.9 µM in assay [14] and above 100 µM in [15].
In the case of `CCOC(=O)C1CCCc2sc(N)c(C#N)c21` (stereo unspecified), the TGI in [1], in assay [2], in [3], in assay [4], in assay [5] and in assay [6] was above 100 µM throughout. The TGI in assay [7], in assay [8], in assay [10], in [11], in [12] and in [13] was above 100 µM throughout. The TGI in assay [14], in [15] and in assay [16] was above 100 µM each time.
As for `C/C(=C/CC[C@](C)(OC1OC(CO)C(O)C(O)C1O)[C@H]1CC[C@]2(C)[C@@H]1CC[C@@H]1[C@@]3(C)CC[C@H](O)C(C)(C)[C@@H]3C[C@H](O)[C@]12CO)CO` (stereo partly specified), the TGI in assay [1], in assay [17], in assay [2], in assay [3], in [4] and in [5] was above 100 µM throughout. In addition, the TGI in assay [6], in assay [7], in assay [8], in [9], in assay [10] and in assay [11] was above 100 µM throughout. Moreover, the TGI in assay [12], in assay [13], in assay [14] and in [15] was above 100 µM in each case.
Turning to `CCOC(=O)C(=[N+]=[N-])C(=O)CSC#N`, the TGI was above 100 µM in [1]; above 100 µM in [17]; 55.3 µM in [2]; above 100 µM in assay [3]; above 100 µM in [4]; above 100 µM in [5]. Besides, the TGI in assay [6], in assay [7], in assay [8], in [9], in assay [10] and in [11] was above 100 µM in each case. For the same compound, the TGI in [12], in [13], in [14] and in assay [15] was above 100 µM each time.
For the compound `N#CC(O)CCOCc1ccccc1` (stereo unspecified), the TGI in assay [1], in assay [17], in [2], in [3], in assay [4] and in assay [5] was above 100 µM in each case. Also, the TGI in assay [6], in assay [7], in [8], in assay [9], in assay [10] and in assay [11] was above 100 µM in each case. The TGI in assay [12], in [13], in assay [14] and in assay [15] was above 100 µM in each case.
